Laboratory results: PMC3125126 (European journal of pharmacology, 2010)
“And” between values parts separate entries of the source, which are not always exact repeats. Equal entries are not always repeated. Where two headings read alike, the source gives them in different places.

Columns and labels:
[1] = system: Ca2+-independent phospholipase A2; settings: ref Yang et al., 1999; cited from earlier work
[2] = system: glutamate uptake; settings: ref Volterra et al., 1992, 1994; cited from earlier work
[3] = system: purified synaptosomes from rat striatum; settings: rat striatal synaptosomes; ref L'hirondel et al., 1995; cited from earlier work
[4] = system: dopamine transporter; settings: ref Chen et al., 2003, cited from earlier work
[5] = system: dopamine transporter; settings: ref Ingram and Amara, 2000; cited from earlier work
[6] = system: rat glutamate transporter, EAAT4; settings: ref Fairman et al., 1998, Tzingounis et al.; cited from earlier work
[7] = system: protein kinase Cγ; settings: bovine cerebellar cells; ref Shearman et al., 1989; cited from earlier work
[8] = biological target: T1, human dopamine transporter (hDAT) (Homo sapiens, UniProt Q01959); test: Dopamine transporter internalization by biotinylation; format: cell-based
T1 sequence (Q01959 whole entry): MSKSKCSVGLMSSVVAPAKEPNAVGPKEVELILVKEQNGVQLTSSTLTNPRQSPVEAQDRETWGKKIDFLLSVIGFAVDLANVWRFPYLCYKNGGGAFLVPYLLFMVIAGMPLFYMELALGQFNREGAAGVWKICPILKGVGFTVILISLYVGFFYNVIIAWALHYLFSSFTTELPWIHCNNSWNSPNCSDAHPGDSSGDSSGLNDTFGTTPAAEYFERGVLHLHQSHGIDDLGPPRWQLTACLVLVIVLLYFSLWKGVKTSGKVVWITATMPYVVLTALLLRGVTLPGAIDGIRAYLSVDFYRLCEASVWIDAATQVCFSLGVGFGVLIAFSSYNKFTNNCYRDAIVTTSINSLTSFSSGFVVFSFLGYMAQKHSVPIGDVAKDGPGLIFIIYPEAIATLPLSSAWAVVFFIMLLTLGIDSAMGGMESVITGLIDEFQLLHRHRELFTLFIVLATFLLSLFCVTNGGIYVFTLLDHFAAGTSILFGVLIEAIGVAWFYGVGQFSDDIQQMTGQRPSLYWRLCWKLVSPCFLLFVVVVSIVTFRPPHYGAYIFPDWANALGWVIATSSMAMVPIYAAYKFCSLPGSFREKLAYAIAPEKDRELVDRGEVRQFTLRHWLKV

[9] = system: dopamine transporter; settings: ref Daniels and Amara, 1999; cited from earlier work
[10] = system: Ca2+-dependent phospholipase A2; settings: ref Street et al., 1993; cited from earlier work
[11] = ref Sugama et al., 2005; Nakamura et al., 2004; cited from earlier work
[12] = system: GTP binding regulatory proteins; settings: ref Higashijima et al., 1988; cited from earlier work
[13] = biological target: T1, human dopamine transporter (hDAT); format: cell-based; settings: butaclamol 100 nM added 10 min before uptake, with melittin 30 min pretreatment
[14] = system: phospholipase A2 activity in HEK-D2-hDAT cells; test: Phospholipase A2 activity after cell treatment; format: cell-based, human; settings: melittin 10 µM and/or quinacrine 10 µM, 30 min; n=3; not significant P>0.05
[15] = system: rat Leydig cells; settings: ref Ronco et al., 2002; cited from earlier work
[16] = system: rat (ventral tegmental area); settings: pretreatment with quinacrine; ref Reid et al., 1996; cited from earlier work
[17] = system: phospholipase C activity in HEK-D2-hDAT cells; format: cell-based, human
[18] = biological target: T1, human dopamine transporter (hDAT); test: [125I]RTI-55 binding to membranes of HEK-D2-hDAT cells; settings: no melittin, 4°C, 16 h, 4 independent experiments
[19] = system: HEK-D2-hDAT cells; test: [3H]Arachidonic acid release from preloaded cells; format: cell-based, human; settings: quinpirole 1 nM to 10 µM; loaded 4 or 24 hours; data not shown

O=C1O/C(=C/Br)CCC1c1cccc2ccccc12 (stereo not shown) [4-bromoenol lactone]
inhibition of Ca2+-independent phospholipase A2 [1]: selectively inhibited

CCCCC/C=C\C/C=C\C/C=C\C/C=C\CCCC(=O)O [arachidonic acid]
effect on uptake of glutamate [2]: inhibits uptake of glutamate | spontaneous dopamine release, dopamine synthesis and uptake [3]: dose-dependently increases spontaneous release of dopamine and decreases dopamine synthesis and uptake | dopamine uptake by rotating disk electrode voltammetry [4]: decrease in dopamine uptake | effect on cation conductance [5]: directly stimulates a cocaine-sensitive cation conductance | effect on proton conductance [6]: alters proton conductance | protein kinase Cγ activation [7]: can activate protein kinase Cγ

COC(=O)[C@H]1[C@@H](OC(=O)c2ccccc2)C[C@@H]2CC[C@H]1N2C [cocaine]
dopamine transporter internalization [8]: 97.8 ± 6.2 % of control and 93.9 ± 8.4 % of control | effect on phorbol ester-induced dopamine transporter internalization [9]: does not alter phorbol ester-induced dopamine transporter internalization

CCCCC/C=C\C/C=C\CCCCCCCC(=O)O [linoleic acid]
dopamine uptake by rotating disk electrode voltammetry [4]: inhibit dopamine transporter-mediated uptake, although to a lesser degree

CCCCC/C=C\C/C=C\C/C=C\C/C=C\CCCC(=O)OCC [Arachidonic acid ethyl ester]
effect on dopamine transporter function (mimicry of arachidonic acid) ([4]; Ingram and Amara, 2000): does not mimic the effects of arachidonic acid on dopamine transporter function

CCCCC/C=C\C/C=C\C/C=C\C/C=C\CCCC(=O)C(F)(F)F [Arachidonyl trifluoromethyl ketone]
inhibition of Ca2+-dependent phospholipase A2 [10]: potent and selective inhibitor

CCCCCCCC/C=C\CCCCCCCC(=O)O [oleic, oleic acid]
dopamine uptake by rotating disk electrode voltammetry [4]: inhibit dopamine transporter-mediated uptake, although to a lesser degree

mastoparan
effect on membrane lipid rafts [11]: disrupts the membrane lipid rafts | stimulation of GTP binding regulatory proteins [12]: stimulate GTP binding regulatory proteins indirectly

CC(C)(C)[C@]1(O)CCN2C[C@H]3c4ccccc4CCc4cccc(c43)[C@@H]2C1 [butaclamol]
effect of D2 receptor block on [3H]dopamine uptake [13]: no difference in [^3H]dopamine uptake

CCN(CC)CCCC(C)Nc1c2ccc(Cl)cc2nc2ccc(OC)cc12 (stereo not shown) [quinacrine]
phospholipase A2 activity [14]: 134 ± 19 % compared to control | effect on melittin-induced arachidonic acid release [15]: unable to inhibit melittin-induced release of arachidonic acid | block of melittin-caused sensitization [16]: blocked

NC[C@@H]1O[C@H](O[C@H]2[C@@H](O)[C@H](O[C@@H]3[C@@H](O)[C@H](N)C[C@H](N)[C@H]3O[C@H]3O[C@H](CN)[C@@H](O)[C@H](O)[C@H]3N)O[C@@H]2CO)[C@H](N)[C@@H](O)[C@@H]1O [neomycin]
phospholipase C activity in presence of melittin without or with neomycin ([17]; neomycin 30 µM pretreatment, melittin 1.3 µM, 1 hour): no significant difference

COC(=O)[C@H]1C(c2ccc(I)cc2)C[C@@H]2CC[C@H]1N2C (stereo partly shown) [RTI-55]
RTI-55 Bmax ([18]; protease inhibitors): 6.7 ± 0.8 pmol/mg | Kd ([18]; read-out: RTI-55 KD): 8.3 ± 1.8 nM

NCCc1ccc(O)c(O)c1 [dopamine]
inositol phosphate-1 concentration [17]: 8.8 ± 3.0 nM

CCCN1CCC[C@@H]2Cc3n[nH]cc3C[C@H]21 [quinpirole]
inositol phosphate-1 concentration ([17]; quinpirole 1 µM, 1 hour, basal 8.3 ± 2.5 nM, n=3, not significant P>0.05): 11.1 ± 2.0 nM | release of loaded [3H]arachidonic acid [19]: less than 0.4%
